Measurements reported in ChEMBL document CHEMBL3414500, “New polycyclic dual inhibitors of the wild type and the V27A mutant M2 channel of the influenza A virus with unexpected binding mode” (Eur J Med Chem, 2015).
Active and inactive are the calls of the source. No cut-off for these calls is given here.

Key:
[1] = target: Matrix protein 2 (Influenza A virus) (UniProt P06821); assay type: cell membranes; settings: Influenza A virus (A/udorn/1972(H3N2)); 100 uM
Matrix protein 2 = Matrix protein 2 (Influenza A virus, UniProt P06821); assay type: cell membranes, Influenza A virus (A/udorn/1972(H3N2))
Influenza A virus [2] = assay: Antiviral activity against Influenza A virus (A/PR/8/34(H1N1)) infected in MDCK cells assessed as reduction of virus-induced cytopathic effect after 72 hrs by microscopic analysis; assay type: functional, organism-based; settings: A/Puerto Rico/8/1934(H1N1)
Influenza A virus [3] = assay: Antiviral activity against Influenza A virus (A/PR/8/34(H1N1)) infected in MDCK cells assessed as cell viability after 72 hrs by MTS assay; assay type: functional, organism-based; settings: A/Puerto Rico/8/1934(H1N1)
[4] = Antiviral activity against Influenza A virus (A/HK/7/87(H3N2)) infected in MDCK cells assessed as reduction of virus-induced cytopathic effect after 72 hrs by microscopic analysis; assay type: functional, cell-based, Influenza A virus (A/Hong Kong/7/1987(H3N2))
[5] = Antiviral activity against Influenza A virus (A/HK/7/87(H3N2)) infected in MDCK cells assessed as cell viability after 72 hrs by MTS assay; assay type: functional, cell-based, Influenza A virus (A/Hong Kong/7/1987(H3N2))
[6] = Antiviral activity against Influenza A virus (A/HK/7/87(H3N2)) infected in MDCK cells assessed as virus plaque reduction preincubated for 1 hr followed by compound wash out and incubated for 72 hrs by crystal violet staining; assay type: functional, cell-based, Influenza A virus (A/Hong Kong/7/1987(H3N2))
[7] = Antiviral activity against Influenza A virus (A/HK/7/87(H3N2)) infected in MDCK cells assessed as 2-log10 reduction in virus yield after 24 hrs by RT-qPCR analysis; assay type: functional, Influenza A virus (A/Hong Kong/7/1987(H3N2))
[8] = Cytotoxicity against MDCK cells assessed as cell viability after 72 hrs by MTS assay; assay type: cell-based, Canis lupus familiaris; settings: dog
[9] = Cytotoxicity against MDCK cells assessed as alternations in cell morphology after 72 hrs; assay type: cell-based, Canis lupus familiaris; settings: dog
Influenza B virus = assay: Antiviral activity against Influenza B virus (B/HK/5/72) infected in MDCK cells assessed as reduction of virus-induced cytopathic effect after 72 hrs by microscopic analysis; assay type: functional, cell-based; settings: B/Hong Kong/05/1972

Sequence of Matrix protein 2 (P06821 whole entry): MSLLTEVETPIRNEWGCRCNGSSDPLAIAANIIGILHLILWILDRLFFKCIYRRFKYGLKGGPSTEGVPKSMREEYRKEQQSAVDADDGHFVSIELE
Sequence of Matrix protein 2 (Influenza A virus) (P06821 whole entry): as above

| Compound | inhibition [1] | IC50 (Matrix protein 2) | EC50 (Influenza A virus [2]) | EC50 (Influenza A virus [3]) | EC50 [4] | EC50 [5] | EC50 [6] | EC99 [7] | CC50 at 72 h [8] | MCC at 72 h [9] | Activity (Influenza B virus) |
| --- | --- | --- | --- | --- | --- | --- | --- | --- | --- | --- | --- |
| Brc1ccc(CNC23CC4CC(CC(C4)C2)C3)s1 | 77% | – | – | – | – | – | – | – | – | – | – |
| C1C2[C@@H]3[C@H]2[C@@H]2C1[C@H]3[C@@H]1CNC[C@@H]12 | 93.7% | 3.3 µM | > 100 µM | > 100 µM | > 100 µM | > 100 µM | 6.7 µM | 28 µM | > 100 µM | > 100 µM | inactive |
| NC12CC3CC(CC(C3)C1)C2 [AMANTADINE] | – | – | 30 µM | 34 µM | 1.4 µM | 1.4 µM | 0.14 µM | 0.72 µM | – | – | – |
| N=C(N)N1C[C@@H]2[C@H](C1)[C@@H]1[C@@H]3[C@H]4C=C[C@H]5[C@@H]3[C@H]2[C@H]2[C@@H]5[C@@H]4[C@@H]12 | 89.6% | 6.5 µM | > 100 µM | > 100 µM | > 100 µM | > 100 µM | > 5 µM | > 2 µM | 1.2 µM | 2 µM | inactive |
| C1=C[C@H]2[C@H]3[C@H]4[C@@H]1[C@@H]1[C@H]2[C@@H]2[C@H]3[C@@H]3CNC[C@@H]3[C@H]4[C@H]12 | 96.4% | 2.6 µM | > 100 µM | > 100 µM | > 100 µM | > 100 µM | 0.37 µM | 3.45 µM | 11 µM | 20 µM | inactive |
| N=C(N)N1CC2C3CCC(C4CCC43)C2C1 (stereo not given) | 94.5% | – | – | – | – | – | – | – | – | – | – |
| C1C[C@H]2[C@H]3[C@H]4[C@@H]1[C@@H]1[C@H]2[C@@H]2[C@H]3[C@@H]3CNC[C@@H]3[C@H]4[C@H]12 | 98.1% | 2.1 µM | > 100 µM | > 100 µM | > 100 µM | > 100 µM | 0.54 µM | > 2 µM | 3.7 µM | 4 µM | inactive |
| N=C(N)N1C[C@@H]2[C@H](C1)[C@@H]1[C@@H]3[C@H]4CC[C@H]5[C@@H]3[C@H]2[C@H]2[C@@H]5[C@@H]4[C@@H]12 | 90.6% | 3.7 µM | > 100 µM | > 100 µM | > 100 µM | > 100 µM | > 5 µM | > 2 µM | 4.6 µM | 7 µM | inactive |
| N=C(N)N1C[C@@H]2[C@H](C1)[C@H]1C3CC4[C@H]([C@H]41)[C@@H]32 | 99% | 0.8 µM | > 100 µM | > 100 µM | > 100 µM | > 100 µM | > 100 µM | > 50 µM | 50 µM | > 100 µM | inactive |
| CC(N)C12CC3CC(CC(C3)C1)C2 (stereo not given) [RIMANTADINE] | – | – | 7.6 µM | 5.1 µM | 0.81 µM | 0.15 µM | 0.02 µM | 1.77 µM | – | – | – |
